Broadly, the IC50 is the concentration that inhibits the measured activity by half.

In patent US8859535B2, “Hydroxy substituted isoquinolinone derivatives” (Novartis AG, priority 2011, dated 2014) one finds IC50 data, which are given here for 18 compounds.

Common to all, as to format: binding
Test [1] addresses T1, human MDM2 protein (amino acids 2-188) (Homo sapiens, UniProt Q00987).
T1 construct: human MDM2 protein (amino acids 2-188); made in house
The test can be described thus: p53-MDM2 TR-FRET assay (p53-MDM2 Assay 1). The following applies: 1.25 nM MDM2-biotinylated, 10 nM Cy5-p53 peptide; read-out: IC50 (μM) of p53-Hdm2 inhibition (TR-FRET) Assay 1. Put shortly:
(§1)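 Peptide displacement read as 665/620 nm TR-FRET ratio (excitation 340 nm) after 15 min room temperature with 10 nM Cy5-p53 aa18-26, following 15 min preincubation of Eu-streptavidin (0.625 nM) with biotinylated MDM4 aa 2-185 (2.5 nM) or MDM2 aa 2-188 (1.25 nM); IC50 curve-fitted. MDM2 Assay 2: MDM2 and Eu-streptavidin each 0.1 nM.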

The target of test [2] is T1, human MDM2 protein (amino acids 2-188). The test can be described thus: p53-MDM2 TR-FRET assay, modified (p53-MDM2 Assay 2). The following applies: 0.1 nM MDM2, 0.1 nM Europium labeled streptavidin; read-out: IC50 (nM) of p53-Hdm2 inhibition (TR-FRET) Assay 2. Put shortly: as §1
On the technique in general: Time-resolved FRET reads energy transfer from a long-lived donor to a nearby acceptor.

In test [3] the target is T2, human MDM4 protein (amino acids 2-185) (Homo sapiens, UniProt O15151).
T2 construct: human MDM4 protein (amino acids 2-185); made in house
T2 sequence (O15151 2-185): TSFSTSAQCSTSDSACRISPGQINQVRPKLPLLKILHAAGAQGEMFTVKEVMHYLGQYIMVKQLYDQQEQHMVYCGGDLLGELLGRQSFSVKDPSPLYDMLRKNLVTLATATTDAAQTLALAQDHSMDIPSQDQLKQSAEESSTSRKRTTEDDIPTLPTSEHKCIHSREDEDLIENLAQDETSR
As to the kind of experiment: p53-MDM4 TR-FRET assay (p53-MDM4 Assay 1). The settings on record: 2.5 nM MDM4-biotinylated, 10 nM Cy5-p53 peptide; read-out: IC50 (μM) of p53-Hdm4 inhibition (TR-FRET) Assay 1. Put shortly: as §1

T1 sequence (Q00987 2-188): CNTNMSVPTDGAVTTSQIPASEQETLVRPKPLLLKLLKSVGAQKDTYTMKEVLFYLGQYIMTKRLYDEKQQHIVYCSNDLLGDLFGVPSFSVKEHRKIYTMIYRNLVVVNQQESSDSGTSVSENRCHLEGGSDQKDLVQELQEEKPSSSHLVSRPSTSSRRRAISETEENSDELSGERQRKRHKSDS

As to `CC[C@@H](C)Oc1cc2c(cc1OC)CC(=O)N(c1ccc(C(C)(O)C3CCN(C(C)=O)CC3)cc1)[C@H]2c1ccc(Cl)cc1` (stereo partly drawn) [Example 52, (S)-2-{4-[1-(1-Acetyl-piperidin-4-yl)-1-hydroxy-ethyl]-phenyl}-7-((R)-sec-butoxy)-1-(4-chloro-phenyl)-6-methoxy-1,4-dihydro-2H-isoquinolin-3-one], the IC50 in test [1] worked out at 0.0018 µM; in test [2], 1.98 nM; in test [3] it was 2.32 µM.
Turning to `COC(=O)N1CCC(C(C)(O)c2ccc(N3C(=O)Cc4cc(OC)c(OC(C)C)cc4[C@@H]3c3ccc(Cl)cc3)cc2)CC1` (stereo partly drawn) [Example 76, 4-(1-{4-[(S)-1-(4-Chloro-phenyl)-7-isopropoxy-6-methoxy-3-oxo-3,4-dihydro-1H-isoquinolin-2-yl]-phenyl}-1-hydroxy-ethyl)-piperidine-1-carboxylic acid methyl ester], the figures for the IC50 in test [1], in test [2] and in test [3] were 0.0017 µM, 2.34 nM and 1.91 µM, respectively.
For the compound `COc1cc2c(cc1OC(C)C)[C@H](c1ccc(Cl)cc1)N(c1ccc(C(C)(O)C3CCN(CCO)CC3)cc1)C(=O)C2` (stereo partly drawn) [Example 93, (S)-1-(4-Chloro-phenyl)-2-(4-{1-hydroxy-1-[1-(2-hydroxy-ethyl)-piperidin-4-yl]-ethyl}-phenyl)-7-isopropoxy-6-methoxy-1,4-dihydro-2H-isoquinolin-3-one], the figures for the concentration for half-maximal inhibition (IC50) in test [1], in test [2] and in test [3] were 0.0027 µM, 2.3 nM and 3.35 µM, respectively.
In the case of `COc1cc2c(cc1OC(C)C)[C@H](c1ccc(Cl)cc1)N(c1ccc(C(C)(O)C3CCN(C4COC4)CC3)cc1)C(=O)C2` (stereo partly drawn) [Example 96, (S)-1-(4-Chloro-phenyl)-2-{4-[1-hydroxy-1-(1-oxetan-3-yl-piperidin-4-yl)-ethyl]-phenyl}-7-isopropoxy-6-methoxy-1,4-dihydro-2H-isoquinolin-3-one], the IC50 in test [1] came out at 0.0021 µM; in test [2], 1.35 nM; in test [3] it was 2.18 µM.
Taken in the same sequence, the figures for `COc1cc2c(cc1OC(C)C)[C@H](c1ccc(Cl)cc1)N(c1ccc(C(C)(O)C3CCN(C4CCC4)CC3)cc1)C(=O)C2` (stereo partly drawn) [Example 97, (S)-1-(4-Chloro-phenyl)-2-{4-[1-(1-cyclobutyl-piperidin-4-yl)-1-hydroxy-ethyl]-phenyl}-7-isopropoxy-6-methoxy-1,4-dihydro-2H-isoquinolin-3-one] were 0.0025 µM, 2.4 nM and 2.43 µM.
The matching figures for `COc1cc2c(cc1OC(C)C)[C@H](c1ccc(Cl)cc1)N(c1ccc(C(C)(O)C3CC4CCC(C3)N4C)cc1)C(=O)C2` (stereo partly drawn) [Example 105, (S)-1-(4-Chloro-phenyl)-2-{4-[1-hydroxy-1-(8-methyl-8-aza-bicyclo[3.2.1]oct-3-yl)-ethyl]-phenyl}-7-isopropoxy-6-methoxy-1,4-dihydro-2H-isoquinolin-3-one]: 0.0043 µM, 2.25 nM and 4.12 µM.
Take `COc1cc2c(cc1OC(C)C)[C@H](c1ccc(Cl)cc1)N(c1ccc(C(C)(O)C3CC4CCC(C3)N4CC(F)(F)F)cc1)C(=O)C2` (stereo partly drawn) [Example 106, (S)-1-(4-Chloro-phenyl)-2-(4-{1-hydroxy-1-[8-(2,2,2-trifluoro-ethyl)-8-aza-bicyclo[3.2.1]oct-3-yl]-ethyl}-phenyl)-7-isopropoxy-6-methoxy-1,4-dihydro-2H-isoquinolin-3-one]: the figures for the IC50 in test [1], in test [2] and in test [3] were 0.0049 µM, 1.97 nM and 8.84 µM, respectively.
`COc1cc2c(cc1OC(C)C)[C@H](c1ccc(Cl)cc1)N(c1ccc(C(C)(O)C3CC4CCC(C3)N4S(C)(=O)=O)cc1)C(=O)C2` (stereo partly drawn) [Example 107, (S)-1-(4-Chloro-phenyl)-2-{4-[1-hydroxy-1-(8-methanesulfonyl-8-aza-bicyclo[3.2.1]oct-3-yl)-ethyl]-phenyl}-7-isopropoxy-6-methoxy-1,4-dihydro-2H-isoquinolin-3-one]: the IC50 in test [1] was 0.0028 µM; in test [2], 1.55 nM; in test [3] it was 2.48 µM.
As to `COc1cc2c(cc1OC(C)C)[C@H](c1ccc(Cl)cc1)N(c1ccc(C(C)(O)C3CC4CCC(C3)N4C(=O)N(C)C)cc1)C(=O)C2` (stereo partly drawn) [Example 108, 3-(1-{4-[(S)-1-(4-Chloro-phenyl)-7-isopropoxy-6-methoxy-3-oxo-3,4-dihydro-1H-isoquinolin-2-yl]-phenyl}-1-hydroxy-ethyl)-8-aza-bicyclo[3.2.1]octane-8-carboxylic acid dimethylamide], the IC50 in test [1] came out at 0.0027 µM; in test [2], 2.07 nM; in test [3], 1.99 µM.
As for `CNC(=O)N1C2CCC1CC(C(C)(O)c1ccc(N3C(=O)Cc4cc(OC)c(OC(C)C)cc4[C@@H]3c3ccc(Cl)cc3)cc1)C2` (stereo partly drawn) [Example 109, 3-(1-{4-[(S)-1-(4-Chloro-phenyl)-7-isopropoxy-6-methoxy-3-oxo-3,4-dihydro-1H-isoquinolin-2-yl]-phenyl}-1-hydroxy-ethyl)-8-aza-bicyclo[3.2.1]octane-8-carboxylic acid methylamide], the results for the IC50 in test [1], in test [2] and in test [3] were 0.0024 µM, 1.7 nM and 2.5 µM, respectively.
As to `COc1cc2c(cc1OC(C)C)[C@H](c1ccc(Cl)cc1)N(c1ccc(C(C)(O)C3CC4CCC(C3)N4C=O)cc1)C(=O)C2` (stereo partly drawn) [Example 111, 3-(1-{4-[(S)-1-(4-Chloro-phenyl)-7-isopropoxy-6-methoxy-3-oxo-3,4-dihydro-1H-isoquinolin-2-yl]-phenyl}-1-hydroxy-ethyl)-8-aza-bicyclo[3.2.1]octane-8-carbaldehyde], the IC50 turned out to be 0.0021 µM in test [1], 1.5 nM in test [2] and 2.55 µM in test [3].
Turning to `CCN1C2CCC1CC(C(C)(O)c1ccc(N3C(=O)Cc4cc(OC)c(OC(C)C)cc4[C@@H]3c3ccc(Cl)cc3)cc1)C2` (stereo partly drawn) [Example 112, (S)-1-(4-Chloro-phenyl)-2-{4-[1-(8-ethyl-8-aza-bicyclo[3.2.1]oct-3-yl)-1-hydroxy-ethyl]-phenyl}-7-isopropoxy-6-methoxy-1,4-dihydro-2H-isoquinolin-3-one], the IC50 in test [1] came out at 0.003 µM; in test [2] it was 2.76 nM; in test [3], 3.46 µM.
For the compound `COc1cc2c(cc1OC(C)C)[C@H](c1ccc(Cl)cc1)N(c1ccc(C(C)(O)C3CC4CCC(C3)N4CCO)cc1)C(=O)C2` (stereo partly drawn) [Example 113, (S)-1-(4-Chloro-phenyl)-2-(4-{1-hydroxy-1-[8-(2-hydroxy-ethyl)-8-aza-bicyclo[3.2.1]oct-3-yl]-ethyl}-phenyl)-7-isopropoxy-6-methoxy-1,4-dihydro-2H-isoquinolin-3-one], the IC50 amounted to 0.0048 µM in test [1], 2.52 nM in test [2] and 4.45 µM in test [3].
As to `COc1cc2c(cc1OC(C)C)[C@H](c1ccc(Cl)cc1)N(c1ccc(C(C)(O)C3CC4CCC(C3)N4C(=O)CO)cc1)C(=O)C2` (stereo partly drawn) [Example 114, (S)-1-(4-Chloro-phenyl)-2-(4-{1-hydroxy-1-[8-(2-hydroxy-acetyl)-8-aza-bicyclo[3.2.1]oct-3-yl]-ethyl}-phenyl)-7-isopropoxy-6-methoxy-1,4-dihydro-2H-isoquinolin-3-one], the results for the IC50 in test [1], in test [2] and in test [3] were 0.0045 µM, 4.76 nM and 4.92 µM, respectively.
Consider `COc1cc2c(cc1OC(C)C)[C@H](c1ccc(Cl)cc1)N(c1ccc(C(C)(O)C3CC4CCC(C3)N4C3COC3)cc1)C(=O)C2` (stereo partly drawn) [Example 115, (S)-1-(4-Chloro-phenyl)-2-{4-[1-hydroxy-1-(8-oxetan-3-yl-8-aza-bicyclo[3.2.1]oct-3-yl)-ethyl]-phenyl}-7-isopropoxy-6-methoxy-1,4-dihydro-2H-isoquinolin-3-one], for which the IC50 worked out at 0.0051 µM in test [1], 5.11 nM in test [2] and 5.39 µM in test [3].
Take `COc1cc2c(cc1OC(C)C)[C@H](c1ccc(Cl)cc1)N(c1ccc(C(C)(O)C3CC4CCCC(C3)N4)cc1)C(=O)C2` (stereo partly drawn) [Example 116, (S)-2-{4-[1-(9-Aza-bicyclo[3.3.1]non-3-yl)-1-hydroxy-ethyl]-phenyl}-1-(4-chloro-phenyl)-7-isopropoxy-6-methoxy-1,4-dihydro-2H-isoquinolin-3-one]: the IC50 was found to be 0.0036 µM in test [1], 3.4 nM in test [2] and 3.93 µM in test [3].
For `COc1cc2c(cc1OC(C)C)[C@H](c1ccc(Cl)cc1)N(c1ccc(C(C)(O)C3CC4CCCC(C3)N4C=O)cc1)C(=O)C2` (stereo partly drawn) [Example 117, 3-(1-{4-[(S)-1-(4-Chloro-phenyl)-7-isopropoxy-6-methoxy-3-oxo-3,4-dihydro-1H-isoquinolin-2-yl]-phenyl}-1-hydroxy-ethyl)-9-aza-bicyclo[3.3.1]nonane-9-carbaldehyde], the IC50 in test [1] was determined as 0.0028 µM; in test [2] it was 1.6 nM; in test [3], 2.88 µM.
On to `COc1cc2c(cc1OC(C)C)[C@H](c1ccc(Cl)cc1)N(c1ccc(C(C)(O)C3CC4CCCC(C3)N4CC(F)(F)F)cc1)C(=O)C2` (stereo partly drawn) [Example 118, (S)-1-(4-Chloro-phenyl)-2-(4-{1-hydroxy-1-[9-(2,2,2-trifluoro-ethyl)-9-aza-bicyclo[3.3.1]non-3-yl]-ethyl}-phenyl)-7-isopropoxy-6-methoxy-1,4-dihydro-2H-isoquinolin-3-one], for which the IC50 is 0.0129 µM in test [1], 13.7 nM in test [2] and 25.1 µM in test [3].
